Source: patent US20230102554A1 (GB002, INC., priority 2019, published 2023)

Experiments:
[1] = target: T1, Human PDGFRα, cytoplasmic domain (GST-PDGFRα) (Homo sapiens, UniProt P16234); assay: Human PDGFRα biochemical inhibition assay (off-chip Mobility Shift Assay)
T1 construct: made in house

[2] = target: T2, Human PDGFRβ, cytoplasmic domain (GST-PDGFRβ) (Homo sapiens, UniProt P09619); assay: Human PDGFRβ biochemical inhibition assay (off-chip Mobility Shift Assay)
T2 construct: made in house
How it was run: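 GST-tagged cytoplasmic domain (aa 557-1106) from baculovirus was incubated 1 h at room temperature with compound, CSKtide, ATP at Km and Mg²⁺ in HEPES buffer, pH 7.5. Phosphorylated and unphosphorylated peptide were separated by off-chip mobility shift, and the product ratio P/(P+S) gave percent inhibition.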

T1 sequence (P16234 550-1089 T674I): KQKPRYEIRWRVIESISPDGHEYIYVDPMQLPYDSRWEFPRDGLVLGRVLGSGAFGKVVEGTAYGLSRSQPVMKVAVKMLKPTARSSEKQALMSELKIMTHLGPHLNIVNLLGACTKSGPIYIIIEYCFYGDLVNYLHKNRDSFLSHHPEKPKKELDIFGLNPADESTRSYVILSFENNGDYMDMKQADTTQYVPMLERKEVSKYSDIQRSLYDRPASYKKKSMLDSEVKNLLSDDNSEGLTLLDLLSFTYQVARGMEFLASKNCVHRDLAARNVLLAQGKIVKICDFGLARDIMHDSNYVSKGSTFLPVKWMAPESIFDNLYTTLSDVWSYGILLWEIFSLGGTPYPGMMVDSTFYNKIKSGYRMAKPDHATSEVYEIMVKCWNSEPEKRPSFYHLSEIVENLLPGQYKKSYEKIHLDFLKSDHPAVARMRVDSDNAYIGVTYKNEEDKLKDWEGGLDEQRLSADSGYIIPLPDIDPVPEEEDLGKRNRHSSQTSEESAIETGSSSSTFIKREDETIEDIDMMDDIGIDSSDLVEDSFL
T2 sequence (P09619 with tags, fused parts or gaps): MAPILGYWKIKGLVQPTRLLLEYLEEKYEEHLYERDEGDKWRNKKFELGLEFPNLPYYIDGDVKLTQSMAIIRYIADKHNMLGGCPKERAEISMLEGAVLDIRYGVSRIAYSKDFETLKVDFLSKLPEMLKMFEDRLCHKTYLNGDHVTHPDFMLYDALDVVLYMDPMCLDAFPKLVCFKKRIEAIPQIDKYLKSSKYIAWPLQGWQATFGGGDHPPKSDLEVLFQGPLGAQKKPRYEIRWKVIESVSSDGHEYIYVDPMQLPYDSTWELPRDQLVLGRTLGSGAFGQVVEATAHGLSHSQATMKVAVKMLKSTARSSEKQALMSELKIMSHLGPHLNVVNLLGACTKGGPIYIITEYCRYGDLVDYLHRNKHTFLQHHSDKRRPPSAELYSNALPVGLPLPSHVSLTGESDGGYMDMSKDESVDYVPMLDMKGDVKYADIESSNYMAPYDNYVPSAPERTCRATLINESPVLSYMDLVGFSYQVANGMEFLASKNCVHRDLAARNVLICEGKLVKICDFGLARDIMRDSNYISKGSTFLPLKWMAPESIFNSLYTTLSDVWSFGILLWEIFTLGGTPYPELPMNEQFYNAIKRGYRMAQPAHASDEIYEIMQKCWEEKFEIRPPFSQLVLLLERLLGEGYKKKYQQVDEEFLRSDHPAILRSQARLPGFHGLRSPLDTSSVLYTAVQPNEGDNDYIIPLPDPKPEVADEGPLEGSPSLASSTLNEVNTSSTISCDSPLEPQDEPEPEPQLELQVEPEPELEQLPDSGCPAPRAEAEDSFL

Compound	IC50 [1] [nM]	IC50 [2] [nM]
C[C@H](Nc1cnc2cnn(C)c2n1)c1cccc(NC(=O)c2cnc3ccn(C)c3c2)c1 [Compound 46, (S)-1-methyl-N-(3-(1-((1-methyl-1H-pyrazolo[3,4-b]pyrazin-6-yl)amino)ethyl)phenyl)-1H-pyrrolo[3,2-b] pyridine-6-carboxamide]	< 300	< 300
Cc1cncc(C(=O)Nc2cccc([C@H](C)Nc3cnc4c(c3)OCCN4)c2)c1 [Compound 45]	300 to 1000	≥ 1000
CCn1cc2ncc(N[C@@H](C)c3cccc(NC(=O)Cc4cc(Cl)ccn4)c3)nc2n1 [Compound 676, (S)-2-(4-chloropyridin-2-yl)-N-(3-(1-((2-ethyl-2H-pyrazolo[3,4-b]pyrazin-6-yl)amino)ethyl)phenyl)acetamide]	300 to 1000	≥ 1000
Cc1cncc(C(=O)Nc2cccc([C@H](C)Nc3cnc4c(n3)CCCC4)c2)c1 [Compound 44, (S)-5-methyl-N-(3-(1-((5,6,7,8-tetrahydroquinoxalin-2-yl)amino)ethyl)phenyl) nicotinamide]	< 300	≥ 1000
Cc1cncc(C(=O)Nc2cccc([C@H](C)Nc3cncc4c3c(C)nn4-c3cnn(C)c3)c2)c1 [Compound 751, (S)-5-methyl-N-(3-(1-((3-methyl-1-(1-methyl-1H-pyrazol-4-yl)-1H-pyrazolo[3,4-c]pyridin-4-yl)amino)ethyl)phenyl)nicotinamide]	≥ 1000	≥ 1000
Cc1c[nH]c2ncc(N[C@@H](C)c3cccc(NC(=O)c4cnn(CCF)c4)c3)nc12 [Compound 575, (S)-1-(2-fluoroethyl)-N-(3-(1-((7-methyl-5H-pyrrolo[2,3-b]pyrazin-2-yl)amino)ethyl)phenyl)-1H-pyrazole-4-carboxamide]	< 300	< 300
Cc1cncc(C(=O)Nc2cccc([C@H](C)Nc3cnc4ccc(C5CC5)cc4n3)c2)c1 [Compound 41, (S)-N-(3-(1-((7-cyclopropylquinoxalin-2-yl)amino)ethyl)phenyl)-5-methylnicotinamide]	< 300	< 300
CCn1cc2ncc(N[C@@H](C)c3cc(NC(=O)Cc4ccc(F)c(C)n4)ccc3F)nc2n1 [Compound 674, (S)-N-(3-(1-((2-ethyl-2H-pyrazolo[3,4-b]pyrazin-6-yl)amino)ethyl)-4-fluorophenyl)-2-(5-fluoro-6-methylpyridin-2-yl) acetamide]	< 300	< 300
CCn1cc2ncc(N[C@@H](C)c3cccc(NC(=O)c4ccc5c(c4)OCO5)c3)nc2n1 [Compound 64, (S)-N-(3-(1-((2-ethyl-2H-pyrazolo[3,4-b]pyrazin-6-yl)amino)ethyl)phenyl) benzo[d][1,3]dioxole-5-carboxamide]	< 300	300 to 1000
Cc1cc(C(=O)Nc2cccc([C@H](C)Nc3cnc4cnn(C)c4n3)c2)cnc1C(F)F [Compound 190, (S)-6-(difluoromethyl)-5-methyl-N-(3-(1-((1-methyl-1H-pyrazolo[3,4-b]pyrazin-6-yl)amino)ethyl)phenyl) nicotinamide]	< 300	< 300
Cc1cncc(C(=O)Nc2cccc(CNc3cnc4ccccc4n3)c2)c1 [Compound 31, 5-methyl-N-(3-((quinoxalin-2-ylamino)methyl)phenyl) nicotinamide]	< 300	< 300
CCn1cc2ncc(N[C@@H](C)c3cc(NC(=O)Cc4ccc5c(n4)OCCC5)ccc3C)nc2n1 [Compound 721, (S)-2-(3,4-dihydro-2H-pyrano[2,3-b]pyridin-7-yl)N-(3-(1-((2-ethyl-2H-pyrazolo[3,4-b]pyrazin-6-yl)amino)ethyl)-4-methylphenyl)acetamide]	< 300	≥ 1000
C=C(C)c1ncc(C(=O)Nc2cccc([C@H](C)Nc3cnc4cnn(C)c4n3)c2)cc1C [Compound 216, (S)-5-methyl-N-(3-(1-((1-methyl-1H-pyrazolo[3,4-b]pyrazin-6-yl)amino)ethyl)phenyl)-6-(prop-1-en-2-yl) nicotinamide]	< 300	< 300
CCn1cc2ncc(N[C@@H](C)c3cccc(NC(=O)Cc4ccccc4F)c3)nc2n1 [Compound 451, (S)-N-(3-(1-((2-ethyl-2H-pyrazolo[3,4-b]pyrazin-6-yl)amino)ethyl)phenyl)-2-(2-fluorophenyl)acetamide]	< 300	300 to 1000
COCc1cncc(C(=O)Nc2cccc([C@H](C)Nc3cnc4cnn(C)c4n3)c2)c1 [Compound 112, (S)-5-(methoxymethyl)-N-(3-(1-((1-methyl-1H-pyrazolo[3,4-b]pyrazin-6-yl)amino)ethyl)phenyl)nicotinamide]	< 300	< 300
CSc1ncc(C(=O)Nc2cccc([C@H](C)Nc3cnc4cnn(C)c4n3)c2)cc1C [Compound 223, (S)-5-methyl-N-(3-(1-((1-methyl-1H-pyrazolo[3,4-b]pyrazin-6-yl)amino)ethyl)phenyl)-6-(methylthio)nicotinamide]	< 300	< 300

Compound	IC50 [1] [nM]	IC50 [2] [nM]
Cc1n[nH]c2ncc(N[C@@H](C)c3cccc(NC(=O)c4cnn(CCF)c4)c3)nc12 [Compound 544, (S)-1-(2-fluoroethyl)-N-(3-(1-((3-methyl-1H-pyrazolo[3,4-b]pyrazin-5-yl)amino)ethyl)phenyl)-1H-pyrazole-4-carboxamide]	< 300	< 300
CC(C)c1cc(C(=O)Nc2cccc([C@H](C)Nc3cnc4[nH]ccc4n3)c2)no1 [Compound 553, (S)-N-(3-(1-((5H-pyrrolo[2,3-b]pyrazin-2-yl)amino)ethyl)phenyl)-5-isopropylisoxazole-3-carboxamide]	< 300	< 300
C[C@H](Nc1cnc2[nH]ccc2n1)c1cc(NC(=O)c2ccc(C3CC3)nc2)ccc1F [Compound 599, (S)-N-(3-(1-((5H-pyrrolo[2,3-b]pyrazin-2-yl)amino)ethyl)-4-fluorophenyl)-6-cyclopropylnicotinamide]	< 300	< 300
CCn1cc2ncc(N[C@@H](C)c3cccc(NC(=O)c4ccc(Cl)s4)c3)nc2n1 [Compound 293, (S)-5-chloro-N-(3-(1-((2-ethyl-2H-pyrazolo[3,4-b]pyrazin-6-yl)amino)ethyl)phenyl)thiophene-2-carboxamide]	< 300	< 300
Cc1cc(C(=O)Nc2cccc([C@H](C)Nc3cnc4cnn(C)c4n3)c2)ccc1C(=O)OCCN [Compound 266, 2-aminoethyl (S)-2-methyl-4-((3-(1-((1-methyl-1H-pyrazolo[3,4-b]pyrazin-6-yl)amino)ethyl)phenyl)carbamoyl) benzoate]	< 300	< 300
COc1ncc(C(=O)Nc2cccc([C@H](C)Nc3cnc4cnn(C)c4n3)c2)cc1C [Compound 128, (S)-6-methoxy-5-methyl-N-(3-(1-((1-methyl-1H-pyrazolo[3,4-b]pyrazin-6-yl)amino)ethyl)phenyl)nicotinamide]	< 300	< 300
C[C@H](Nc1cnc2cnn(C)c2n1)c1cccc(NC(=O)c2ccc3c(c2)SCCN3)c1 [Compound 79, (S)-N-(3-(1-((1-methyl-1H-pyrazolo[3,4-d]pyrazin-6-yl)amino)ethyl)phenyl)-3,4-dihydro-2H-benzo[b] [1,4]thiazine-7-carboxamide]	< 300	< 300
COC(=O)c1ccc(C(=O)Nc2cccc([C@H](C)Nc3cnc4cnn(C)c4n3)c2)cc1OC [Compound 261, methyl (S)-2-methoxy-4-((3-(1-((1-methyl-1H-pyrazolo[3,4-b]pyrazin-6-yl)amino)ethyl)phenyl)carbamoyl)benzoate]	< 300	< 300
CCn1cc2ncc(N[C@@H](C)c3cccc(NC(=O)c4cnc(NC)c(C)c4)c3)nc2n1 [Compound 380, (S)-N-(3-(1-((2-ethyl-2H-pyrazolo[3,4-b]pyrazin-6-yl)amino)ethyl)phenyl)-5-methyl-6-(methylamino)nicotinamide]	< 300	300 to 1000
Cc1cncc(C(=O)Nc2cccc([C@H](C)Nc3cnc4cnn(-c5cnn(C)c5)c4n3)c2)c1 [Compound 186, (S)-5-methyl-N-(3-(1-((1-(1-methyl-1H-pyrazol-4-yl)-1H-pyrazolo[3,4-b]pyrazin-6-yl)amino)ethyl)phenyl) nicotinamide]	< 300	< 300
CCn1cc2ncc(N[C@@H](C)c3cccc(NC(=O)c4cnc(CO)s4)c3)nc2n1 [Compound 363, (S)-N-(3-(1-((2-ethyl-2H-pyrazolo[3,4-b]pyrazin-6-yl)amino)ethyl)phenyl)-2-(hydroxymethyl)thiazole-5-carboxamide]	≥ 1000	≥ 1000
CCn1cc2ncc(N[C@@H](C)c3cccc(NC(=O)c4ccc5c(c4)OC(F)(F)O5)c3)nc2n1 [Compound 442, (S)-N-(3-(1-((2-ethyl-2H-pyrazolo[3,4-b]pyrazin-6-yl)amino)ethyl)phenyl)-2,2-difluorobenzo[d][1,3]dioxole-5-carboxamide]	< 300	< 300
Cc1cncc(C(=O)Nc2cccc([C@H](C)Nc3cncc4c3cnn4-c3cnn(C)c3)c2)c1 [Compound 21]	< 300	< 300
Cc1cncc(C(=O)Nc2cccc([C@H](C)Nc3cnc4cn(CCF)nc4n3)c2)c1 [Compound 277, (S)-N-(3-(1-((2-(2-fluoroethyl)-2H-pyrazolo[3,4-b]pyrazin-6-yl)amino)ethyl)phenyl)-5-methylnicotinamide]	< 300	< 300
C[C@H](Nc1cnc2cnn(C)c2n1)c1cccc(NC(=O)c2cncc(C(F)(F)F)c2)c1 [Compound 102, (S)-N-(3-(1-((1-methyl-1H-pyrazolo[3,4-b]pyrazin-6-yl)amino)ethyl)phenyl)-5-(trifluoromethyl)nicotinamide]	< 300	< 300
